Data from article PMC7926264 (Clinical cancer research : an official journal of the …, 2020).

Experiments:
[1] = Human plasma protein binding; format: in vitro ADME
[2] = Clinical plasma pharmacokinetics of afatinib; format: in vivo; conditions: human, po, 40 mg
[3] = cited from earlier work
[4] = Mouse plasma protein binding; format: in vitro ADME
[5] = Afatinib plasma pharmacokinetics and human equivalent dose in nude mice; format: in vivo
H2170 cells (HER2 amp) = assay: cells; format: cell-based; conditions: Homo sapiens, NCI-H2170, 72 h, read-out: IC50 proliferation
[6] = test system: MDA-MB-175vIII cells (DOC4-NRG1 fusion); assay: cells; format: cell-based; conditions: Homo sapiens, 72 h, read-out: IC50 proliferation
Calu-3 cells (HER2 amp) = assay: cells; format: cell-based; conditions: Homo sapiens, Calu-3, 72 h, read-out: IC50 proliferation
[7] = test system: H1781 cells (HER2 ex20ins); assay: cells; format: cell-based; conditions: Homo sapiens, NCI-H1781, 72 h, read-out: IC50 proliferation
[8] = test system: H661 cells (HER4 overexpression); assay: cells; format: cell-based; conditions: Homo sapiens, NCI-H661, 72 h, read-out: IC50 proliferation
[9] = test system: CUTO14 cells (EGFR exon 20 insertion p.A767_V769dupASV); assay: cells; conditions: Homo sapiens, CUTO14, 72 h, read-out: IC50 proliferation
[10] = test system: EGFR phosphorylation (pEGFR) in CUTO14, CUTO17, and CUTO18
[11] = test system: CUTO18 cells (EGFR exon 20 insertion p.S768_D770dupSVD); assay: cells; conditions: Homo sapiens, 72 h, read-out: IC50 proliferation
[12] = test system: CUTO17 cells (EGFR exon 20 insertion p.N771_773dupNPH); assay: cells; conditions: Homo sapiens, CUTO17, 72 h, read-out: IC50 proliferation

fraction unbound [1]	AUC [2] [ng·h/mL]	fraction unbound [4]	human equivalent dose (HED) in nude mice ([5]; extrapolation by linear regression to total AUC of 468 ng*hr/mL) [mg/kg]	plasma AUCtotal required in mice to replicate human AUCfree ([5]; mice) [ng·h/mL]	IC50 [6] [nM]	SMILES	Cmax in patients at steady state ([3]; 40mg PO daily) [ng/mL]	plasma AUCtotal ([3]; human, 40 mg PO once daily) [ng·h/mL]	Cmax ([3]; read-out: Cmax in patients at steady state, 40mg PO daily) [nM]	IC50 (H2170 cells (HER2 amp)) [nM]	IC50 (Calu-3 cells (HER2 amp)) [nM]	IC50 [7] [nM]	IC50 [8] [nM]	IC50 [9] [nM]	inhibition of EGFR phosphorylation (pEGFR) [10]	IC50 [11] [nM]	IC50 [12] [nM]
0.0821	27	0.0577	6	468	1.2 ± 3.1	CN(C)C/C=C/C(=O)Nc1cc2c(Nc3ccc(F)c(Cl)c3)ncnc2cc1O[C@H]1CCOC1 [Afatinib]	38	324	78	11 ± 2.9	31 ± 11.4	66					
						C=CC(=O)Nc1cc(Nc2nccc(-c3cn(C)c4ccccc34)n2)c(OC)cc1N(C)CCN(C)C [Osimertinib]				113 ± 4.4	188 ± 35.2	406	4518 ± 2	303	showed inhibition at higher concentrations	647 ± 6.7	426 ± 21.5
